Laboratory results taken from patent US6780883B2, “Amide inhibitors of microsomal triglyceride transfer protein” (Warner-Lambert Company, priority 1998, dated 2004).

What was measured:
[1] = target: apolipoprotein(a), [apo(a)], apolipoproteinB-100, [apoB-100], coupling reaction that generates Lp(a) (Homo sapiens, UniProt P04114+P08519); assay: LPABC screen: lipoprotein(a) biochemical coupling assay, Lp(a) content by ELISA; conditions: recombinant apo(a) 17-kringle (293 cell media) + HepG2 conditioned media, 67 minutes, 37° C., 0.3 to 50 μM compound; read-out: Lp ABC IC50
Description: LPABC Screen The lipoprotein(a), [Lp(a)], biochemical coupling assay (LPABC) is used to characterize inhibitors of the apolipoprotein(a), [apo(a)], apolipoproteinB-100, [apoB-100], coupling reaction that generates Lp(a). Conditioned media from 293 cells (ATCC CRL-1573), permanently transfected with an apo(a) 17-kringle cDNA expression construct (pcDNA-AMP, In Vitrogen, Carlsbad, Calif.) using standard molecular biology techniques, was used as a source of recombinant apo(a) is diluted 1:3 with phosphate buffered saline (PBS) and 90 μL is pipetted into each well of a 96-well plate and placed into a 37° C. incubator for 10 minutes. Twenty microliters of a 0.3 to 50 μM solution of a compound of the present invention in PBS is added to the warmed plate. Ninety microliters of HepG2 (ATCC HB-8065) cell conditioned media diluted 1:3 with PBS is added to the apo(a)/compound mixture and mixed by pipetting up and down 5 times. The reaction is incubated for 67 minutes in a 37° C. incubator. A 100 μL aliquot of the reaction is removed and assayed for its Lp(a) content by an enzyme linked immunosorbent assay (ELISA).

[2] = system: Lp(a) production in HepG2^K17 cells; assay: LPA3 screen: inhibition of Lp(a) production in transfected HepG2 cells, Lp(a) in media by ELISA; assay type: cell-based; conditions: Homo sapiens, 8 hours, 0.3 to 50 μM compound, Lp(a) normalized for total protein, read-out: Lp A3 IC50
Description: The LPA3 screen is used to identify compounds that inhibit Lp(a) production. This screen employs permanently transfected HepG2 cells (HepG2^K17) that are generated using an apo(a) 17-kringle cDNA expression construct (pcDNA-AMP, In Vitrogen, Carlsbad, Calif.) in accordance with methods that are well-known in molecular biology.
HepG2^K17 cells are seeded in 96-well plates at a density of 75,000 cells per well in 0.25 mL of Dulbecco's Modified Eagle Media (DMEM) containing 10% fetal bovine serum (FBS). Seeded plates are incubated overnight in a 37° C., 5% CO2/95% 02 incubator. The media is removed, replaced with (1) fresh media, or (2) fresh media plus 0.3 to 50 μM of a compound of the present invention in 20 μL of PBS, and the plates returned to the incubator for 8 hours. After the additional 8 hours of incubation, Lp(a) is assayed in the media by ELISA. Cells are digested with 0.5N NaOH overnight and assayed for total protein. Lp(a) values are normalized for total protein content.

SMILES	IC50 [1] [µM]	IC50 [2] [µM]
COc1cccc(CN(C(=O)c2ccccc2)c2ccccc2)c1 [Example 61, N-(3-Methoxy-benzyl)-N-phenyl-benzamide]	> 50	47.1
CCCCOc1ccc(N(Cc2ccc3c(c2)C(C)(C)CCC3(C)C)C(=O)CN(CC)CC)cn1 [Example 82, N-(6-Butoxy-pyridin-3-yl)-2-diethylamino-N-(5,5,8,8-tetramethyl-5,6,7,8-tetrahydro-naphthalen-2-ylmethyl)-acetamide]	> 50	36.8
CCOc1ccc(C(=O)N(Cc2ccccc2-c2ccccc2)c2ccc(OC)nc2)cc1 [Example 95, N-Biphenyl-2-ylmethyl-4-ethoxy-N-(6-methoxy-pyridin-3-yl)-benzamide]	> 50	11.4
COc1ccc(N(Cc2ccccc2-c2ccccc2)C(=O)c2ccccc2OCc2ccccc2)cc1 [Example 107, 2-Benzyloxy-N-biphenyl-2-ylmethyl-N-(4-methoxy-phenyl)-benzamide]	> 50	15.4
CCOc1ccc(C(=O)N(Cc2cccnc2)Cc2ccccc2-c2ccccc2)cc1 [Example 102, N-Biphenyl-2-ylmethyl-4-ethoxy-N-pyridin-3-ylmethyl-benzamide]	> 50	15.9
CCOc1ccccc1C(=O)N(Cc1ccccc1-c1ccccc1)c1ccc(OC)cc1 [Example 104, N-Biphenyl-2-ylmethyl-2-ethoxy-N-(4-methoxy-phenyl)-benzamide]	> 50	11.9
O=C(c1ccccc1OCc1ccccc1)N(Cc1ccccc1-c1ccccc1)c1ccccn1 [Example 113, 2-Benzyloxy-N-biphenyl-2-ylmethyl-N-pyridin-2-yl-benzamide]	> 50	25.1
CCN(CC)CCCc1ccc(N(Cc2ccc3ccccc3c2)C(=O)c2ccccc2)cc1 [Example 57, N-[4-(3-Diethylamino-propyl)-phenyl]-N-naphthalen-2-ylmethyl-benzamide]	> 50	11.4
COc1ccc(C(=O)N(Cc2cc(C(F)(F)F)cc(C(F)(F)F)c2)c2ccccc2)cc1OC [Example 42, N-(3,5-Bis-trifluoromethyl-benzyl)-3,4-dimethoxy-N-phenyl-benzamide]	> 50	70.8
CC(C)c1ccc(C(=O)N(Cc2ccc3c(c2)C(C)(C)CCC3(C)C)c2cccnc2)cc1 [Example 68, 4-Isopropyl-N-pyridin-3-yl-N-(5,5,8,8-tetramethyl-5,6,7,8-tetrahydro-naphthalen-2-ylmethyl)-benzamide]	> 50	39.8
COc1ccc(N(Cc2ccccc2-c2ccccc2)C(=O)c2ccccc2[S+]([O-])C(C)C)cc1OC (stereo not drawn) [Example 142, N-Biphenyl-2-ylmethyl-N-(3,4-dimethoxy-phenyl)-2-(propane-2-sulfinyl)-benzamide]	> 50	7
CCN(CC)CCCc1ccc(N(Cc2ccc3c(c2)C(C)(C)CCC3(C)C)C(=O)c2ccccc2)cc1 [Example 89, N-[4-(3-Diethylamino-propyl)-phenyl]-N-(5,5,8,8-tetramethyl-5,6,7,8-tetrahydro-naphthalen-2-ylmethyl)-benzamide]	> 50	13.2
COc1ccc(N(Cc2ccccc2-c2ccccc2)C(=O)c2cccc(Sc3ccccc3)c2)cc1OC [Example 136, N-Biphenyl-2-ylmethyl-N-(3,4-dimethoxy-phenyl)-3-phenylsulfanyl-benzamide]	> 50	33.8
COc1ccc(N(Cc2ccccc2-c2ccccc2)C(=O)c2ccccc2[N+](=O)[O-])cn1 [Example 94, N-Biphenyl-2-ylmethyl-N-(6-methoxy-pyridin-3-yl)-2-nitro-benzamide]	> 50	24.8
CCOc1ccccc1C(=O)N(Cc1ccccc1-c1ccccc1)c1ccccn1 [Example 110, N-Biphenyl-2-ylmethyl-2-ethoxy-N-pyridin-2-yl-benzamide]	> 50	14
CCCSc1ccccc1C(=O)N(Cc1ccccc1-c1ccccc1)c1cccc(OC)c1 [Example 128, N-Biphenyl-2-ylmethyl-N-(3-methoxy-phenyl)-2-propylsulfanyl-benzamide]	> 50	46.8
COc1cccc(N(Cc2ccccc2-c2ccccc2)C(=O)c2ccccc2SC)c1 [Example 129, N-Biphenyl-2-ylmethyl-N-(3-methoxy-phenyl)-2-methylsulfanyl-benzamide]	> 50	6.5

SMILES	IC50 [1] [µM]	IC50 [2] [µM]
COc1ccc(N(Cc2ccc3c(c2)C(C)(C)CCC3(C)C)C(=O)c2cc(OC)c(OC)c(OC)c2)cn1 [Example 65, 3,4,5-Trimethoxy-N-(6-methoxy-pyridin-3-yl)-N-(5,5,8,8-tetramethyl-5,6,7,8-tetrahydro-naphthalen-2-ylmethyl)-benzamide]	> 50	32.6
CCN(CC)CCCc1ccc(N(Cc2ccc(Cl)c(Cl)c2)C(=O)c2ccccc2)cc1 [Example 56, N-(3,4-Dichloro-benzyl)-N-[4-(3-diethylamino-propyl)-phenyl]-benzamide]	> 50	11
COc1ccccc1C(=O)N(Cc1cccnc1)Cc1ccccc1-c1ccccc1 [Example 92, N-Biphenyl-2-ylmethyl-2-methoxy-N-pyridin-3-ylmethyl-benzamide]	> 50	6.3
COc1ccc(N(Cc2ccccc2-c2ccccc2)C(=O)c2ccccc2Br)cc1 [Example 108, N-Biphenyl-2-ylmethyl-2-bromo-N-(4-methoxy-phenyl)-benzamide]	> 50	37.7
CCOc1ccccc1C(=O)N(Cc1cccnc1)Cc1ccccc1-c1ccccc1 [Example 96, N-Biphenyl-2-ylmethyl-2-ethoxy-N-pyridin-3-ylmethyl-benzamide]	> 50	7.5
CCOc1ccccc1C(=O)N(Cc1ccccc1-c1ccccc1)c1ccc(OC)nc1 [Example 90, N-Biphenyl-2-ylmethyl-2-ethoxy-N-(6-methoxy-pyridin-3-yl)-benzamide]	> 50	31.7
COc1ccccc1N(Cc1ccccc1-c1ccccc1)C(=O)c1ccccc1 [Example 88, N-Biphenyl-2-ylmethyl-N-(2-methoxy-phenyl)-benzamide]	> 50	16.5
CCOc1ccccc1C(=O)N(Cc1ccc(C(C)(C)C)cc1)c1cccnc1 [Example 80, N-(4-tert-Butyl-benzyl)-2-ethoxy-N-pyridin-3-yl-benzamide]	> 50	19.2
COc1cc(C(=O)N(Cc2ccc3ccccc3c2)c2cnc3ccccc3c2)cc(OC)c1OC [Example 62, 3,4,5-Trimethoxy-N-naphthalen-2-ylmethyl-N-quinolin-3-yl-benzamide]	> 50	22.2
O=C(c1ccccc1[N+](=O)[O-])N(Cc1ccccc1-c1ccccc1)c1ccncc1 [Example 122, N-Biphenyl-2-ylmethyl-2-nitro-N-pyridin-4-yl-benzamide]	> 50	22.4
COc1ccc(C(=O)N(Cc2ccc(Cl)c(Cl)c2)c2ccccc2)cc1OC [Example 46, N-(3,4-Dichloro-benzyl)-3,4-dimethoxy-N-phenyl-benzamide]	> 50	35.1
O=C(c1cc2ccccc2s1)N(Cc1ccccc1-c1ccccc1)c1ccncc1 [Example 93, Benzo[b]thiophene-2-carboxylic acid biphenyl-2-ylmethyl-pyridin-4-yl-amide]	> 50	10.5
CCN(CC)CCCc1ccc(N(Cc2cc(C(C)(C)C)cc(C(C)(C)C)c2)C(=O)c2ccccc2)cc1 [Example 51, N-(3,5-Di-tert-butyl-benzyl)-N-[4-(3-diethylamino-propyl)-phenyl]-benzamide]	> 50	24.5
COc1ccc(C(=O)N(Cc2cc(C(C)(C)C)cc(C(C)(C)C)c2)c2ccccc2)cc1OC [Example 41, N-(3,5-Di-tert-butyl-benzyl)-3,4-dimethoxy-N-phenyl-benzamide]	> 50	49.3
CCOc1ccccc1C(=O)N(Cc1ccc(Cl)c(Cl)c1)c1cccnc1 [Example 78, N-(3,4-Dichloro-benzyl)-2-ethoxy-N-pyridin-3-yl-benzamide]	> 50	10.3
CCN(CC)CCCc1ccc(N(Cc2ccccc2-c2ccccc2)C(=O)c2ccccc2)cc1 [Example 58, N-Biphenyl-2-ylmethyl-N-[4-(3-diethylamino-propyl)-phenyl]-benzamide]	> 50	11.6
